How the values were obtained:
E. coli 683/17 = experiment: MIC for planktonic cell growth (A625nm); type: cell-based, Escherichia coli; details: for MICPC80: ≥80% inhibition, 24 h
Procedure: (§1) Ten concentrations of NAC, RLs, and UA were tested to determine the minimum inhibitory concentration for planktonic growth, and subsequently, the six highest concentrations were applied on preformed biofilms to evaluate the biofilm eradication ability of the compounds. MIC was defined as the lowest substance concentration able to inhibit at least 80% of microbial growth (MICPC80 for planktonic cells, MICBC80 for further growth of biofilm cells), inhibit 80% of metabolic activity (MICBM80 for biofilm metabolic activity, MICMPB80 for metabolic activity of preformed biofilm), prevent biofilm formation by at least 80% (MICBF80 for biofilm formation), or reduce a preformed biofilm by at least 80% (MICBR80 for biofilm reduction). The results of MICs are summarized in Table 1 (planktonic cells) and Table 2 (biofilm-associated cells).
(§2) The determination of MICs was performed according to Chlumsky et al.. Briefly, 96-well flat-bottomed microtiter plates were inoculated with 75 µL (for biofilm formation) or 100 µL (for preformed biofilm) of bacterial suspension (A625nm 0.08 to 0.1) in technical triplicates and were then carefully mixed with the dilution series of the test substances (24 h cultivation at 25 °C for S. Infantis, 37 °C for other strains) or were directly cultivated to preform biofilms (18 h). For a positive control of bacterial growth, the inoculum was mixed with a pure sterile medium. Furthermore, the sterile medium was included in the plate as a marker of potential microbial contamination. To evaluate planktonic cells growth (MICPC80) and further growth of biofilm cells (MICBC80), the optical density of the content of the microtiter plates was measured spectrophotometrically at 625 nm before and after 24 h (for biofilm formation) of cultivation or before and after additional 20 h incubation with the tested compound (for preformed biofilm). The difference of A625nm was considered as a measure of the ability of cells to grow in the presence of the tested substances. To evaluate the inhibition of biofilm formation (MICBF80) and reduction in preformed biofilms (MICBR80), biomass was quantified using crystal violet staining, and its metabolic activity (MICBM80 and MICMPB80) was estimated by using the MTT (thiazyl tetrazolium bromide, Sigma-Aldrich, USA) reduction assay, both measured spectrophotometrically at 595 nm.
(§3) All inhibitions were calculated using the formula of Chlumsky et al. below (Equation (1)):(1) A625(595)nm inhibition (%)=A625(595)nm (control) – A625(595)nm(natural substance)/A625(595)nm (control)× 100 where A625(595)nm (control) is the absorbance of bacterial suspension/biofilm itself, and A625(595)nm(natural substance) is the absorbance of the bacterial suspension/biofilm with the added natural substance (NAC, RLs, and UA).
(§4) When the minimum inhibitory concentration could not be determined, the MIC was established as >the highest tested concentration for NAC, RLs, and UA.

E. coli 693/17 = experiment: MIC for planktonic cell growth (A625nm); type: cell-based, Escherichia coli; details: for MICPC80: ≥80% inhibition, 24 h
Procedure: as §1, §2, §3, §4

[1] = tested on: S. Enteritidis ATCC 13076; experiment: MIC for biofilm formation (crystal violet staining); type: cell-based, Salmonella enterica Enteritidis; details: for MICBF80: ≥80% prevention, 24 h
Procedure: as §1
The determination of MICs was performed according to Chlumsky et al.. […] To evaluate planktonic cells growth (MICPC80) and further growth of biofilm cells (MICBC80), the optical density of the content of the microtiter plates was measured spectrophotometrically at 625 nm before and after 24 h (for biofilm formation) of cultivation or before and after additional 20 h incubation with the tested compound (for preformed biofilm). […] To evaluate the inhibition of biofilm formation (MICBF80) and reduction in preformed biofilms (MICBR80), biomass was quantified using crystal violet staining, and its metabolic activity (MICBM80 and MICMPB80) was estimated by using the MTT (thiazyl tetrazolium bromide, Sigma-Aldrich, USA) reduction assay, both measured spectrophotometrically at 595 nm.
as §3, with “UA). […]” for “UA).”

L. monocytogenes 149 = experiment: MIC for further growth of biofilm cells, preformed biofilm (A625nm); type: cell-based, Listeria monocytogenes; details: ≥80% inhibition, 18 h preformed biofilm, 20 h with substance
Procedure: as §1
as §2, with “Furthermore, the sterile medium was included in the plate as a marker of potential microbial contamination.” left out, “The difference of A625nm was considered as a measure of the ability of cells to grow in the presence of the tested substances.” left out
as §3, §4

L. monocytogenes 164 = experiment: as above; type: cell-based, Listeria monocytogenes; details: ≥80% inhibition, 18 h preformed biofilm, 20 h with substance
Procedure: as §1
as §2, with “Furthermore, the sterile medium was included in the plate as a marker of potential microbial contamination.” left out, “The difference of A625nm was considered as a measure of the ability of cells to grow in the presence of the tested substances.” left out
as §3, §4

S. aureus 1241 = experiment: CLSM analysis, biofilm removal (preformed biofilm); type: cell-based, Staphylococcus aureus; details: 20 h exposure, mean ± SD; for Thickness (µm) MICBM80: substance at its MIC; for Thickness (µm) subCBM80: substance at subinhibitory concentration
Procedure: (§5) Biofilm prevention and removal analyses were performed using previously determined minimum inhibitory and subinhibitory concentrations for metabolic activity (MICBM80, subCBM80; MICMPB80, subCMPB80) of NAC, RLs, and UA specific for each tested strain. Selected concentrations were used to evaluate the inhibition of biofilm formation (biofilm prevention) and the reduction in previously formed biofilms (biofilm removal) for the same set of microorganisms, with the exception of S. Infantis, which was excluded from the analysis due to its inability to form biofilm in the selected microtiter plate. Biofilm prevention and removal were observed using CLSM with specific staining to distinguish between live and membrane-compromised cells. Images were analyzed to evaluate (i). the total volume of the biomass, (ii). ratios of live and membrane-compromised cells, and (iii). to calculate biofilm volume reduction for individual organisms after the respective treatment types. The total biofilm volume was normalized by the area of the well and expressed as an average biofilm thickness. Complete data are provided in Supplementary Materials (Tables S1–S8).
(§6) At first, bacterial suspensions were cultivated in microtiter plates to produce overnight biofilms (18 h). […] cells were then washed out, and the remaining biofilms were further cultivated for an additional 20 h with selected compounds. Following biofilm cultivation, biomass was observed using CLSM with live/membrane-compromised cell staining. Biomass images from biofilm removal treatments were similar to results from biofilm prevention, where biomass was highly diversified across the bacterial species and strains. Visually, biomass images were fairly consistent within the quadruplicates for each tested organism. Non-treated biofilms of S. aureus contained consistent biomass spread across the well (S. aureus 816) or grown around the edges (S. aureus 1241). […] PI staining identified membrane-compromised cells spread across S. aureus 816 biomass and incorporated in the edge of biomass and/or in the central part of the well (Figure 4B,C). […] Membrane-compromised cells appeared contained around the edges (S. aureus 1241), disturbed across the well (in both strains of L. monocytogenes), or in separated biomass in the central part of the well (in both strains of E. coli when treated with the subinhibitory concentration of RLs) (Figure 4D,E).
(§7) For both inhibition and reduction of biofilms, overnight cultures from BHI were diluted in TSB + 1% Glc to reach an absorbance of 0.08 to 0.1 at 625 nm. The inoculum (150 µL) was transferred into wells of the 96-well flat-bottomed Ibidiμ-Plate (Ibidi, Gräfelfing, Germany) and mixed with 150 µL of each of the three tested substances in technical quadruplicates, followed by incubation at 37 °C for 24 h. Simultaneously, the prepared bacterial suspensions were inoculated to an additional microtiter plate (200 µL) and allowed to form biofilm overnight (18 h at 37 °C). After the incubation, the content of the well was drained off, and 200 µL of each of the three tested substances was added to the plate, which was then incubated for an additional 20 h. The used concentrations of the substances represented the subinhibitory and minimum inhibitory concentrations for metabolic activity (subCBM80, MICBM80; subCMPB80, MICMPB80). Both setups contained a positive control of the bacterial growth (inoculum mixed with sterile TSB + 1% Glc medium) and a control monitoring microbial contamination (sterile medium). Non-treated wells were used as a positive control for comparison between non-treated and treated biofilm mass.
(§8) Prior to the imaging, the wells were stained with the LIVE/DEAD® BacLight™ Bacterial Viability Kit (Thermo Fisher Scientific, MA, USA) following the manufacturer’s guidelines and Drago et al.. […]

S. aureus 816 = experiment: CLSM analysis, biofilm removal (preformed biofilm); type: cell-based, Staphylococcus aureus; details: for proportion of membrane-compromised cells: 20 h; for Thickness (µm) subCBM80: substance at subinhibitory concentration
Procedure: as §5, §6, §7, §8

[2] = preformed biofilm, 20 h exposure, mean ± SD

| SMILES | MICPC80 (E. coli 683/17) [µg/mL] | MICPC80 (E. coli 693/17) [µg/mL] | MICBF80 [1] | MICBC80 (L. monocytogenes 149) [µg/mL] | MICBC80 (L. monocytogenes 164) [µg/mL] | Thickness (µm) MICBM80 (S. aureus 1241) [µm] | Thickness (µm) subCBM80 (S. aureus 1241) [µm] | proportion of membrane-compromised cells (S. aureus 816; MIC) | Thickness (µm) MICBM80 (S. aureus 816; preformed biofilm, 20 h exposure, substance at its MIC, mean ± SD) [µm] | Thickness (µm) subCBM80 (S. aureus 816; [2]) [µm] | maximal achieved inhibition (MICPC80 not reached) (E. coli 683/17; within tested concentrations) [%] | maximal achieved inhibition (MICPC80 not reached) (E. coli 693/17; within tested concentrations) [%] | maximal achieved inhibition (MICBF80 not reached) ([1]; within tested concentrations) [%] | proportion of membrane-compromised cells (S. aureus 816; subinhibitory concentration) |
| --- | --- | --- | --- | --- | --- | --- | --- | --- | --- | --- | --- | --- | --- | --- |
| CC(=O)N[C@@H](CS)C(=O)O [NAC, N-Acetyl-L-cysteine] | 3130 | 6250 | 12,500 µg/mL | 3130 | 3130 | 253 ± 44.4 | 266 ± 37.9 | up to 20% | 156 ± 80.4 | 247 ± 64.7 | – | – | – | – |
| CC(=O)c1c(O)c(C)c(O)c2c1OC1=CC(=O)C(C(C)=O)C(=O)C12C (single isomer, unassigned; (+)) [UA, (+)-usnic acid] | > 31.3 | > 31.3 | > 31.3 µg/mL | 1.96 | 1.96 | 210 ± 32.5 | 251 ± 15.7 | – | – | 152 ± 68.6 | 20 | 40 | 25 | up to 40% |

— article PMC8583417, “Evaluation of the Antimicrobial Efficacy of N-Acetyl-L-Cysteine, Rhamnolipids, and Usnic Acid—Novel Approaches to Fight Food-Borne Pathogens” (International Journal of Molecular Sciences, 2021)
